From patent publication US12281108B2, “Pyrrolidinone derivatives as formyl peptide 2 receptor agonists” (BRISTOL-MYERS SQUIBB COMPANY, priority 2018, dated 2025)

Target: T1, human FPR2 receptors (Homo sapiens, UniProt P25090)
T1 sequence (P25090 1-351): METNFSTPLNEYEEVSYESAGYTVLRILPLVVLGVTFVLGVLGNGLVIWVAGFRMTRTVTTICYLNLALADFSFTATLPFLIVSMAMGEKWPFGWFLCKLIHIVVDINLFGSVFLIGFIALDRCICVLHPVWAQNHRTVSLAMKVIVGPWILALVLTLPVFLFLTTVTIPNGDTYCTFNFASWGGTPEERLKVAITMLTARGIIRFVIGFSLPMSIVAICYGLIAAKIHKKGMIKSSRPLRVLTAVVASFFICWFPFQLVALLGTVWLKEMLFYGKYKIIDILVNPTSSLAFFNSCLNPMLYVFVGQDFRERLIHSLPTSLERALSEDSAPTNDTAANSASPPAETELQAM
Experiment: FPR2 cAMP assay in CHO cells overexpressing human FPR2 (HTRF)
Assay type: cell-based
Settings: hFPR2 assay; potency bins; read-out: hFPR2 agonist activity EC50
Description: N-formyl peptide receptors (FPRs) are a family of chemo attractant receptors that facilitate leukocyte response during inflammation. FPRs belong to the seven-transmembrane G protein-coupled receptor superfamily and are linked to inhibitory G-proteins (Gi). Three family members (FPR1, FPR2 and FPR3) have been identified in humans and are predominantly found in myeloid cells with varied distribution and have also been reported in multiple organs and tissues. After agonist binding, the FPRs activate a multitude of physiological pathways, such as intra cellular signaling transduction, Ca^2+ mobilization and transcription. The family interacts with a diverse set of ligands that includes proteins, polypeptides and fatty acid metabolites which activate both pro-inflammatory and pro-resolution downstream responses. FPR2 and FPR1 Cyclic Adenosine Monophosphate (cAMP) Assays were used to measure the in vitro activity of the compounds disclosed in this application.
FPR2 and FPR1 Cyclic Adenosine Monophosphate (cAMP) Assays. A mixture of forskolin (5 μM final for FPR2 or 10 μM final for FPR1) and IBMX (200 μM final) were added to 384-well Proxiplates (Perkin-Elmer) pre-dotted with test compounds in DMSO (1% final) at final concentrations in the range of 0.020 nM to 100 μM. Chinese Hamster Ovary cells (CHO) overexpressing human FPR1 or human FPR2 receptors were cultured in F-12 (Ham's) medium supplemented with 10% qualified FBS, 250 μg/ml zeocin and 300 μg/ml hygromycin (Life Technologies). Reactions were initiated by adding 2,000 human FPR2 cells per well or 4,000 human FPR1 cells per well in Dulbecco's PBS (with calcium and magnesium) (Life Technologies) supplemented with 0.1% BSA (Perkin-Elmer). The reaction mixtures were incubated for 30 min at room temperature. The level of intracellular cAMP was determined using the HTRF HiRange cAMP assay reagent kit (Cisbio) according to manufacturer's instruction. Solutions of cryptate conjugated anti-cAMP and d2 flurorophore-labelled cAMP were made in a supplied lysis buffer separately. Upon completion of the reaction, the cells were lysed with equal volume of the d2-cAMP solution and anti-cAMP solution. After a 1-h room temperature incubation, time-resolved fluorescence intensity was measured using the Envision (Perkin-Elmer) at 400 nm excitation and dual emission at 590 nm and 665 nm. A calibration curve was constructed with an external cAMP standard at concentrations ranging from 1 μM to 0.1 pM by plotting the fluorescent intensity ratio from 665 nm emission to the intensity from the 590 nm emission against cAMP concentrations. The potency and activity of a compound to inhibit cAMP production was then determined by fitting to a 4-parametric logistic equation from a plot of cAMP level versus compound concentrations.

With `COc1cc(F)c([C@@H]2CNC(=O)[C@H]2Nc2nnc(-c3ccc(SC(F)(F)F)cc3)s2)c(F)c1` [Example 29, (3S,4R)-4-(2,6-difluoro-4-methoxyphenyl)-3-[(5-{4-[(trifluoromethyl)sulfanyl]phenyl}-1,3,4-thiadiazol-2-yl)amino]pyrrolidin-2-one] the EC50 was 40 to 150 nM.

`COc1cc(F)c([C@@H]2CNC(=O)[C@H]2Nc2nnc(-c3ccc(Oc4ccc(Cl)cn4)cc3)o2)c(F)c1` [Example 55, (3S,4R)-3-[(5-{4-[(5-chloropyridin-2-yl)oxy]phenyl}-1,3,4-oxadiazol-2-yl)amino]-4-(2,6-difluoro-4-methoxyphenyl)pyrrolidin-2-one] was tested, and the EC50 was ≤ 40 nM.

`COc1cc(F)c([C@@H]2CNC(=O)[C@H]2Nc2nnc(-c3ccc(C(F)(F)F)nc3)o2)c(F)c1` [Example 10, (3S,4R)-4-(2,6-difluoro-4-methoxyphenyl)-3-({5-[6-(trifluoromethyl)pyridin-3-yl]-1,3,4-oxadiazol-2-yl}amino)pyrrolidin-2-one] was tested, and the EC50 was ≤ 40 nM.

`COc1cc(F)c([C@@H]2CNC(=O)[C@H]2Nc2nnc(-c3ccc([S+]([O-])C(F)(F)F)cc3)o2)c(F)c1` (stereo partly drawn) [Example 26, (3S,4R)-4-(2,6-difluoro-4-methoxyphenyl)-3-{[5-(4-trifluoromethanesulfinylphenyl)-1,3,4-oxadiazol-2-yl]amino}pyrrolidin-2-one] was tested, and the EC50 was 150 to 1000 nM.

`COc1cc(F)c([C@@H]2CNC(=O)[C@H]2Nc2nnc(-c3ccc(Oc4ccc(F)cn4)cc3)o2)c(F)c1` [Example 65, (3S,4R)-4-(2,6-difluoro-4-methoxyphenyl)-3-[(5-{4-[(5-fluoropyridin-2-yl)oxy]phenyl}-1,3,4-oxadiazol-2-yl)amino]pyrrolidin-2-one] gave an EC50 of 40 to 150 nM.

`COc1cc(F)c([C@@H]2CNC(=O)[C@H]2Nc2nnc(-c3ccc(-n4cccn4)cc3)o2)c(F)c1` [Example 13, (3S,4R)-4-(2,6-difluoro-4-methoxyphenyl)-3-({5-[4-(1H-pyrazol-1-yl)phenyl]-1,3,4-oxadiazol-2-yl}amino)pyrrolidin-2-one] was tested, and the EC50 was 150 to 1000 nM.

Work on `COc1cc(F)c([C@@H]2CNC(=O)[C@H]2Nc2nnc(-c3ccc(C(F)(F)F)cn3)o2)c(F)c1` [Example 14, (3S,4R)-4-(2,6-difluoro-4-methoxyphenyl)-3-({5-[5-(trifluoromethyl)pyridin-2-yl]-1,3,4-oxadiazol-2-yl}amino)pyrrolidin-2-one] yielded an EC50 of 150 to 1000 nM.

Work on `COc1cc(F)c([C@@H]2CNC(=O)[C@H]2Nc2nnc(-c3ccc(Oc4ncccc4F)cc3)o2)c(F)c1` [Example 61, (3S,4R)-4-(2,6-difluoro-4-methoxyphenyl)-3-[(5-{4-[(3-fluoropyridin-2-yl)oxy]phenyl}-1,3,4-oxadiazol-2-yl)amino]pyrrolidin-2-one] yielded an EC50 of 40 to 150 nM.

In the case of `COc1cc(F)c([C@@H]2CNC(=O)[C@H]2Nc2nnc(-c3ccc(F)cc3)s2)c(F)c1` [Example 32, (3S,4R)-4-(2,6-difluoro-4-methoxyphenyl)-3-{[5-(4-fluorophenyl)-1,3,4-thiadiazol-2-yl]amino}pyrrolidin-2-one], the EC50 is reported as 40 to 150 nM.

For `COc1cc(F)c([C@@H]2CNC(=O)[C@H]2Nc2cc(-c3ccc(OC(F)(F)F)cc3)on2)c(F)c1` [Example 23, (3S,4R)-4-(2,6-difluoro-4-methoxyphenyl)-3-({5-[4-(trifluoromethoxy)phenyl]-1,2-oxazol-3-yl}amino)pyrrolidin-2-one], the EC50 was ≤ 40 nM.

For `COc1cc(F)c([C@@H]2CNC(=O)[C@H]2Nc2ncc(-c3ccc(Cl)cc3)o2)c(F)c1` [Example 24, (3S,4R)-3-{[5-(4-chlorophenyl)-1,3-oxazol-2-yl]amino}-4-(2,6-difluoro-4-methoxyphenyl)pyrrolidin-2-one], the EC50 was 150 to 1000 nM.

With `COc1cc(F)c([C@@H]2CNC(=O)[C@H]2Nc2nnc(-c3ccc(C(F)(F)F)cc3)o2)c(F)c1` [Example 8, (3S,4R)-4-(2,6-difluoro-4-methoxyphenyl)-3-({5-[4-(trifluoromethyl)phenyl]-1,3,4-oxadiazol-2-yl}amino)pyrrolidin-2-one] the EC50 was ≤ 40 nM.

With `COc1cc(F)c([C@@H]2CNC(=O)[C@H]2Nc2nnc(-c3ccc(OC(F)F)cc3)o2)c(F)c1` [Example 37, (3S,4R)-4-(2,6-difluoro-4-methoxyphenyl)-3-({5-[4-(difluoromethoxy)phenyl]-1,3,4-oxadiazol-2-yl}amino)pyrrolidin-2-one] the EC50 was 150 to 1000 nM.

In the case of `COc1cc(F)c([C@@H]2CNC(=O)[C@H]2Nc2nnc(-c3ccc(Oc4ccc(C#N)cc4)cc3)o2)c(F)c1` [Example 57, 4-[4-(5-{[(3S,4R)-4-(2,6-difluoro-4-methoxyphenyl)-2-oxopyrrolidin-3-yl]amino}-1,3,4-oxadiazol-2-yl)phenoxy]benzonitrile], the EC50 is reported as 40 to 150 nM.

`CCCCOc1ccc(-c2nnc(N[C@@H]3C(=O)NC[C@H]3c3c(F)cc(OC)cc3F)o2)cc1` [Example 34, (3S,4R)-3-{[5-(4-butoxyphenyl)-1,3,4-oxadiazol-2-yl]amino}-4-(2,6-difluoro-4-methoxyphenyl)pyrrolidin-2-one] was tested, and the EC50 was 40 to 150 nM.

With `COc1cc(F)c([C@@H]2CNC(=O)[C@H]2Nc2nnc(-c3ccc(Oc4ccccc4)cc3)o2)c(F)c1` [Example 35, (3S,4R)-4-(2,6-difluoro-4-methoxyphenyl)-3-{[5-(4-phenoxyphenyl)-1,3,4-oxadiazol-2-yl]amino}pyrrolidin-2-one] the EC50 was ≤ 40 nM.

For `COc1cc(F)c([C@@H]2CNC(=O)[C@H]2Nc2nnc(-c3cccnc3)o2)c(F)c1` [Example 6, (3S,4R)-4-(2,6-difluoro-4-methoxyphenyl)-3-{[5-(pyridin-3-yl)-1,3,4-oxadiazol-2-yl]amino}pyrrolidin-2-one], the EC50 was 150 to 1000 nM.

With `COc1cc(F)c([C@@H]2CNC(=O)[C@H]2Nc2nnc(-c3ccc(Cl)cc3F)o2)c(F)c1` [Example 15, (3S,4R)-3-{[5-(4-chloro-2-fluorophenyl)-1,3,4-oxadiazol-2-yl]amino}-4-(2,6-difluoro-4-methoxyphenyl)pyrrolidin-2-one] the EC50 was 150 to 1000 nM.

In the case of `COc1cc(F)c([C@@H]2CNC(=O)[C@H]2Nc2nnc(C3CC3c3cccc(Cl)c3)o2)c(F)c1` (stereo partly drawn) [Example 45, (3S,4R)-3-({5-[2-(3-chlorophenyl)cyclopropyl]-1,3,4-oxadiazol-2-yl}amino)-4-(2,6-difluoro-4-methoxyphenyl)pyrrolidin-2-one], the EC50 is reported as ≤ 40 nM.

Work on `COc1cc(F)c([C@@H]2CNC(=O)[C@H]2Nc2nnc(-c3ccc(C)cc3)o2)c(F)c1` [Example 11, (3S,4R)-4-(2,6-difluoro-4-methoxyphenyl)-3-{[5-(4-methylphenyl)-1,3,4-oxadiazol-2-yl]amino}pyrrolidin-2-one] yielded an EC50 of 150 to 1000 nM.

Compound `COc1cc(F)c([C@@H]2CNC(=O)[C@H]2Nc2nnc(-c3ccc(C#N)cc3)o2)c(F)c1` [Example 9, 4-(5-{[(3S,4R)-4-(2,6-difluoro-4-methoxyphenyl)-2-oxopyrrolidin-3-yl]amino}-1,3,4-oxadiazol-2-yl)benzonitrile] has an EC50 of 150 to 1000 nM.

In the case of `COc1cc(F)c([C@@H]2CNC(=O)[C@H]2Nc2nnc(-c3ccc(Oc4ccc(Cl)cc4)cc3)o2)c(F)c1` [Example 40, (3S,4R)-3-({5-[4-(4-chlorophenoxy)phenyl]-1,3,4-oxadiazol-2-yl}amino)-4-(2,6-difluoro-4-methoxyphenyl)pyrrolidin-2-one], the EC50 is reported as ≤ 40 nM.

For `COc1cc(F)c([C@@H]2CNC(=O)[C@H]2Nc2nnc(-c3ccc(Cl)nc3)o2)c(F)c1` [Example 16, (3S,4R)-3-{[5-(6-chloropyridin-3-yl)-1,3,4-oxadiazol-2-yl]amino}-4-(2,6-difluoro-4-methoxyphenyl)pyrrolidin-2-one], the EC50 was ≤ 40 nM.

For `COc1cc(F)c([C@@H]2CN(C)C(=O)[C@H]2Nc2nnc(-c3ccc(Cl)cc3)o2)c(F)c1` [Example 20, (3S,4R)-3-{[5-(4-chlorophenyl)-1,3,4-oxadiazol-2-yl]amino}-4-(2,6-difluoro-4-methoxyphenyl)-1-methylpyrrolidin-2-one], the EC50 was ≤ 40 nM.
